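Briefly, cells in 96-well plates were exposed to five compound concentrations for 48 h, and endpoints were estimated by linear interpolation. At the GI50, growth is halved.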 Activity calls are given as the source filed them. Rule as the data show it: active = GI50 up to about 1.1 µM and inactive = higher.

For orientation: GI50 means the concentration that inhibits growth by half.

Among the test systems are NCI/ADR-RES; SN12C; RXF 393; NCI-H460; K562; OVCAR-8; TK-10; RPMI-8226; SF-295; MDA-N; HOP-62; ACHN; MDA-MB-435; SR; SK-OV-3; IGROV-1; SF-539; EKVX; NCI-H23; MOLT-4.
Holding throughout (experiment): DTP human tumour cell line panel, 48 h

As for `NCCSCCc1ccccc1`, the GI50 in the experiment with NCI/ADR-RES, in the experiment with SN12C, in the experiment with RXF 393, in the experiment on NCI-H460, with K562 and in the experiment on OVCAR-8 was > 100 µM (inactive) throughout. In addition, the GI50 with TK-10 is > 100 µM (inactive); with RPMI-8226, 44 µM (inactive); with SF-295, > 100 µM (inactive); with MDA-N it was > 100 µM (inactive); in the experiment on HOP-62, > 100 µM (inactive); in the experiment with ACHN, > 100 µM (inactive). For the same molecule, the GI50 in the experiment on MDA-MB-435 was > 100 µM (inactive); with SR it was 88.3 µM (inactive); in the experiment on SK-OV-3, > 100 µM (inactive); in the experiment on IGROV-1, > 100 µM (inactive); in the experiment on SF-539 it was > 100 µM (inactive); in the experiment with EKVX, > 100 µM (inactive). In the experiment with NCI-H23, the GI50 is > 100 µM (inactive).
As for `CCOC(=O)c1cc([N+](=O)[O-])cc([N+](=O)[O-])c1Sc1[nH]cnc2ncnc1-2`, the GI50 in the experiment with NCI/ADR-RES is 3.11 µM (inactive); with SN12C, 2.21 µM (inactive); in the experiment on RXF 393, 1.82 µM (inactive); in the experiment on NCI-H460, 8.81 µM (inactive); with MOLT-4 it was 1.24 µM (inactive); in the experiment with K562 it was 0.661 µM (active). In addition, the GI50 in the experiment on OVCAR-8 was 1.93 µM (inactive); in the experiment with TK-10, 4.5 µM (inactive); with RPMI-8226 it was 1.65 µM (inactive); with SF-295, 7.29 µM (inactive); with MDA-N, 1.82 µM (inactive); in the experiment with HOP-62, 3.54 µM (inactive). Further, the GI50 is 1.96 µM (inactive) in the experiment with ACHN; 1.6 µM (inactive) in the experiment on MDA-MB-435; 2.38 µM (inactive) in the experiment with SR; 11 µM (inactive) in the experiment with SK-OV-3; 2.31 µM (inactive) in the experiment on IGROV-1; 2.92 µM (inactive) with SF-539. Also, the GI50 in the experiment on EKVX was 5.08 µM (inactive).
Consider `O=C(Nc1ccc([As](=O)(O)O)cc1)Nc1cccc(Cl)c1Cl`, for which the GI50 is > 100 µM (inactive) in the experiment on NCI/ADR-RES; > 100 µM (inactive) with SN12C; 22.2 µM (inactive) in the experiment with RXF 393; > 100 µM (inactive) in the experiment on NCI-H460; 97.5 µM (inactive) in the experiment on K562; 46.2 µM (inactive) with OVCAR-8. In addition, the GI50 in the experiment on TK-10 is 89.1 µM (inactive); with RPMI-8226, > 100 µM (inactive); with SF-295 it was 65.5 µM (inactive); with MDA-N, > 100 µM (inactive); with HOP-62 it was 70 µM (inactive); in the experiment on ACHN it was > 100 µM (inactive). The GI50 with MDA-MB-435 was > 100 µM (inactive); with SR, 17 µM (inactive); in the experiment with SK-OV-3, > 100 µM (inactive); in the experiment on IGROV-1, > 100 µM (inactive); in the experiment with SF-539, > 100 µM (inactive); in the experiment on EKVX it was 79.8 µM (inactive). Moreover, the GI50 in the experiment with NCI-H23 is > 100 µM (inactive).
On to `CCOP(=O)(COCCn1ncc(=O)[nH]c1=O)OCC`, for which the GI50 with NCI/ADR-RES, in the experiment with SN12C, in the experiment with RXF 393, with NCI-H460, in the experiment with MOLT-4 and with OVCAR-8 was > 100 µM (inactive) throughout. Moreover, the GI50 in the experiment with TK-10, with RPMI-8226, in the experiment on MDA-N, in the experiment on HOP-62, in the experiment on ACHN and with MDA-MB-435 was > 100 µM (inactive) each time. The GI50 with SR, in the experiment on IGROV-1, with SF-539, with EKVX and in the experiment with NCI-H23 was > 100 µM (inactive) in each case.
For the molecule `CN1C(=O)CC2CCCN2C1=O` (stereo not given), the GI50 with NCI/ADR-RES, in the experiment on RXF 393, in the experiment with NCI-H460, in the experiment on MOLT-4, in the experiment on K562 and in the experiment on OVCAR-8 was > 100 µM (inactive) in each case. Besides, the GI50 with TK-10, in the experiment on RPMI-8226, with SF-295, in the experiment with MDA-N, in the experiment on HOP-62 and with ACHN was > 100 µM (inactive) each time. Moreover, the GI50 in the experiment on MDA-MB-435, in the experiment on SR, in the experiment with SK-OV-3, in the experiment with IGROV-1, with SF-539 and in the experiment on EKVX was > 100 µM (inactive) each time. For the same molecule, the GI50 in the experiment on NCI-H23 was > 100 µM (inactive).
`O=C(NNC(=S)Nc1cccc(Cl)c1)c1cc(-c2ccccc2)nc2ccccc12`: the GI50 in the experiment with NCI/ADR-RES is 20.4 µM (inactive); with SN12C, 14.7 µM (inactive); with RXF 393, 16.1 µM (inactive); with NCI-H460, 18.6 µM (inactive); with MOLT-4, 28 µM (inactive); in the experiment with K562 it was 20.7 µM (inactive). Also, the GI50 with OVCAR-8 was 20.7 µM (inactive); in the experiment with TK-10, 15.4 µM (inactive); in the experiment on RPMI-8226, 6.68 µM (inactive); in the experiment with SF-295, 11.7 µM (inactive); with MDA-N, 18.3 µM (inactive); in the experiment with HOP-62 it was 16.3 µM (inactive). Besides, the GI50 was 16.3 µM (inactive) in the experiment with ACHN; 16 µM (inactive) with MDA-MB-435; 23.9 µM (inactive) with SR; 19.9 µM (inactive) in the experiment with SK-OV-3; 18.7 µM (inactive) in the experiment with IGROV-1; 15.1 µM (inactive) in the experiment with SF-539. For the same molecule, the GI50 with NCI-H23 was 13.8 µM (inactive).
Turning to `CN(C)C1=Nc2ccccc2C(=S)N2CSCC12` (stereo not given), the GI50 with NCI/ADR-RES is 73.8 µM (inactive); in the experiment with SN12C, 84.5 µM (inactive); in the experiment with RXF 393, 44.7 µM (inactive); in the experiment on NCI-H460, 37.8 µM (inactive); in the experiment with MOLT-4, 22.4 µM (inactive); with K562 it was 12.8 µM (inactive). In addition, the GI50 in the experiment with OVCAR-8 was > 100 µM (inactive); in the experiment with TK-10, > 100 µM (inactive); in the experiment with RPMI-8226 it was 51.4 µM (inactive); in the experiment on SF-295 it was > 100 µM (inactive); with MDA-N it was 39.2 µM (inactive); in the experiment on HOP-62, > 100 µM (inactive). For the same molecule, the GI50 in the experiment on ACHN was > 100 µM (inactive); with MDA-MB-435, > 100 µM (inactive); in the experiment with SR, 17.9 µM (inactive); with SK-OV-3 it was > 100 µM (inactive); in the experiment with IGROV-1, 19.1 µM (inactive); in the experiment with EKVX, 41.1 µM (inactive).
Consider `CSc1c(C#N)c2n(c3ccccc3[n+]2C)c2ncccc12`, for which the GI50 was 28.4 µM (inactive) with NCI/ADR-RES; 21.2 µM (inactive) with SN12C; 17.9 µM (inactive) with RXF 393; 15.7 µM (inactive) with NCI-H460; 92.5 µM (inactive) in the experiment on MOLT-4; 37.9 µM (inactive) in the experiment on K562. Moreover, the GI50 was 22.3 µM (inactive) in the experiment with OVCAR-8; 25.4 µM (inactive) in the experiment with RPMI-8226; 18.9 µM (inactive) in the experiment with SF-295; 21.2 µM (inactive) in the experiment with MDA-N; 23.4 µM (inactive) in the experiment on HOP-62; 18.7 µM (inactive) in the experiment on ACHN. Besides, the GI50 was 32 µM (inactive) in the experiment on MDA-MB-435; 23.5 µM (inactive) in the experiment on SR; 36.1 µM (inactive) in the experiment on SK-OV-3; 24.7 µM (inactive) with IGROV-1; 21.7 µM (inactive) with EKVX; 21.5 µM (inactive) in the experiment with NCI-H23.
In the case of `CCc1n[nH]c(=O)n1NC(=O)c1ccccc1C(=O)O`, the GI50 with NCI/ADR-RES, in the experiment with SN12C, in the experiment on RXF 393, with MOLT-4, in the experiment on K562 and in the experiment with OVCAR-8 was > 100 µM (inactive) in each case. The GI50 with TK-10, in the experiment with RPMI-8226, in the experiment with SF-295, with MDA-N, with HOP-62 and in the experiment with ACHN was > 100 µM (inactive) each time. Besides, the GI50 with MDA-MB-435, in the experiment with SR, in the experiment with SK-OV-3, with IGROV-1, with SF-539 and with EKVX was > 100 µM (inactive) in each case. For the same molecule, in the experiment with NCI-H23, the GI50 was > 100 µM (inactive).
Turning to `O=c1oc2ccccc2cc1-c1nnc(-c2ccccc2)s1`, the GI50 in the experiment on NCI/ADR-RES was 12.1 µM (inactive); in the experiment on SN12C, 60.5 µM (inactive); in the experiment on RXF 393 it was 17.1 µM (inactive); in the experiment with NCI-H460, 28.1 µM (inactive); in the experiment on MOLT-4, 19.1 µM (inactive); in the experiment with K562, 9.89 µM (inactive). For the same molecule, the GI50 with OVCAR-8 was 22.1 µM (inactive); with TK-10, > 36.6 µM (inactive); in the experiment with RPMI-8226, > 55.7 µM (inactive); with SF-295, 28.2 µM (inactive); with MDA-N, 2.54 µM (inactive); with HOP-62 it was 16.1 µM (inactive). The GI50 with ACHN was 32 µM (inactive); in the experiment with MDA-MB-435, 1.65 µM (inactive); in the experiment on SR, 0.971 µM (active); in the experiment on SK-OV-3 it was 48.6 µM (inactive); in the experiment on IGROV-1, 22.4 µM (inactive); in the experiment on SF-539, 14.5 µM (inactive). Also, the GI50 was > 58.9 µM (inactive) in the experiment with EKVX and > 51.2 µM (inactive) in the experiment with NCI-H23.
Consider `N#Cc1cc2c(n(C3OC(CO)C(O)C(O)C3O)c1=S)CCC2` (stereo not given), for which the GI50 in the experiment on NCI/ADR-RES, in the experiment on SN12C, in the experiment with RXF 393, in the experiment on NCI-H460, in the experiment on MOLT-4 and in the experiment with K562 was > 100 µM (inactive) throughout. In addition, the GI50 with OVCAR-8, with TK-10, in the experiment on RPMI-8226, in the experiment with SF-295, in the experiment on MDA-N and in the experiment with HOP-62 was > 100 µM (inactive) each time. Also, the GI50 in the experiment on ACHN, in the experiment with MDA-MB-435, with SR, in the experiment with IGROV-1, with SF-539 and with NCI-H23 was > 100 µM (inactive) each time.

(Values after ChEMBL document CHEMBL1201862, “PubChem BioAssay data set” (2004).)
